This note sets out measurements from ChEMBL document CHEMBL1275270, “Antioxidant activity of unexplored indole derivatives: synthesis and screening” (Eur J Med Chem, 2010).

Format in all cases: functional
Assay [1] can be described thus: Antioxidant activity assessed as inhibition of H2O2-induced oxidation of lucigenin.
Assay [2] can be described thus: Antioxidant activity assessed as inhibition of HOCl-induced oxidation of DHR by rhodamine 123 staining.
The nature of assay [3]: Antioxidant activity assessed as superoxide radical scavenging activity by NBT reduction assay.
Assay [4] in a line: Antioxidant activity assessed as trolox equivalent of peroxyl radical scavenging activity by ORAC assay.
Assay [5] is described as follows: Antioxidant activity assessed as inhibition of peroxynitrite anion-induced oxidation of non-fluorescent DHR by rhodamine 123 staining in presence of NaHCO3.
A short description of assay [6]: Antioxidant activity assessed as inhibition of peroxynitrite anion-induced oxidation of non-fluorescent DHR by rhodamine 123 staining in absence of NaHCO3. The following applies: for pIC50: read-out: IC50.
Assay [7] in a line: Antioxidant activity assessed as inhibition of nitric oxide-induced oxidation of non-fluorescent DAF-2 by fluorescence assay. Conditions: for pIC50: read-out: IC50.
A short description of assay [8]: Antioxidant activity assessed as inhibition of singlet oxygen-induced oxidation of DHR by rhodamine 123 staining. Conditions: for pIC50: read-out: IC50.

pIC50: −log10 of the molar value. The source made the active and inactive calls. The rule behind the calls is not given here.

By pIC50 is commonly meant the negative decadic logarithm of the IC50, by convention in mol/L. Regarding `CC(C)=CCn1cc(CCN)c2ccccc21`, the inhibition entry in assay [1] was “inactive”. Besides, the negative-log IC50 (pIC50) is 4.58 in assay [2]; 3.63 in assay [5]; 3.04 in assay [6]; 2.84 in assay [7]; 3.21 in assay [8]. The result in assay [3] was inactive. Further, in assay [4], the fold change (FC) was determined as 0.96.

Consider `O=C1c2ccccc2C(=O)N1CCc1c[nH]c2ccccc12`, for which the inhibition entry in assay [1] was “inactive”. Also, the negative logarithm of the IC50 (pIC50) in assay [2] was 4.95; in assay [5], 4.39; in assay [6], 4.03. Also, in assay [3], the outcome was inactive. For the same molecule, the fold change (FC) in assay [4] was 1.46. Moreover, the IC50 entry in assay [7] and in assay [8] was “Not Active” throughout.

Turning to `COC(=O)[C@H](Cc1cn(CCCc2ccccc2)c2ccccc12)NC(C)=O`, in assay [1], the inhibition entry was “inactive”. The negative logarithm of the IC50 (pIC50) in assay [2] is 4.85; in assay [5], 3.85; in assay [8] it was 3.30. For the same molecule, the result in assay [3] was inactive. Moreover, the fold change (FC) in assay [4] worked out at 0.44. The IC50 result in assay [6] and in assay [7] was “Not Active” in each case.

For `CC(C)CCn1cc(CCN2C(=O)c3ccccc3C2=O)c2ccccc21`, the inhibition result in assay [1] was “inactive”. Besides, the pIC50 was 4.97 in assay [2], 3.63 in assay [5], 2.82 in assay [7] and 2.99 in assay [8]. Besides, the outcome in assay [3] was inactive. Further, the “fold change (FC)” value in assay [4] was “inactive”. In addition, the IC50 entry in assay [6] is given as “Not Active”.

As for `COC(=O)[C@H](Cc1cn(CCC(C)C)c2ccccc12)NC(C)=O`, the inhibition entry in assay [1] is “inactive”. Moreover, the pIC50 was 5.08 in assay [2], 3.50 in assay [5], 3.26 in assay [6] and 3.14 in assay [8]. For the same molecule, the result in assay [3] was inactive. The fold change (FC) in assay [4] is 0.28. The IC50 entry in assay [7] is reported as “Not Active”.

Turning to `COC(=O)C(Cc1c[nH]c2ccccc12)N1C(=O)c2ccccc2C1=O` (stereo not given), the inhibition result in assay [1] is “inactive”. Also, the pIC50 is 4.56 in assay [2], 4.53 in assay [5], 3.68 in assay [6] and 3.03 in assay [8]. Also, the result in assay [3] was inactive. Moreover, in assay [4], the fold change (FC) was determined as 1.09. The IC50 entry in assay [7] is “Not Active”.

In the case of `CC(C)=CCn1cc(CC(N)C(=O)O)c2ccccc21` (stereo not given), in assay [1], the inhibition result was “inactive”. Besides, the negative-log IC50 (pIC50) in assay [2] is 5.38; in assay [5], 4.37; in assay [6] it was 4.02; in assay [7], 3.68; in assay [8] it was 3.08. For the same molecule, in assay [3], the outcome was inactive. Also, the fold change (FC) in assay [4] worked out at 1.05.

For the molecule `COC(=O)C(Cc1c(CC=C(C)C)[nH]c2ccccc12)N1C(=O)c2ccccc2C1=O` (stereo not given), the inhibition entry in assay [1] was “inactive”. The pIC50 in assay [2] is 5.14; in assay [5], 4.55; in assay [7] it was 3.62; in assay [8], 2.64. The result in assay [3] was inactive. The fold change (FC) in assay [4] is 0.45. For the same molecule, the IC50 result in assay [6] is reported as “Not Active”.

Take `COC(=O)[C@H](Cc1cn(CC=C(C)C)c2ccccc12)NC(C)=O`: the inhibition result in assay [1] is “inactive”. The pIC50 in assay [2] is 4.48; in assay [5], 3.79; in assay [6], 3.26; in assay [7] it was 3.01; in assay [8] it was 3.11. For the same molecule, the outcome in assay [3] was inactive. The fold change (FC) in assay [4] came to 0.21.

As to `NCCc1c[nH]c2ccccc12` [TRYPTAMINE], the inhibition entry in assay [1] was “inactive”. Also, the pIC50 in assay [2] is 5.22; in assay [5], 4.98; in assay [6], 4.50; in assay [7] it was 3.17; in assay [8] it was 3.17. Further, the outcome in assay [3] was inactive. Also, the fold change (FC) in assay [4] was determined as 1.86.

Regarding `COC(=O)[C@H](Cc1c[nH]c2ccccc12)NC(C)=O`, in assay [1], the inhibition entry was “inactive”. Further, the negative-log IC50 (pIC50) was 4.30 in assay [2], 4.64 in assay [5], 3.65 in assay [6] and 2.81 in assay [8]. Also, the outcome in assay [3] was inactive. In addition, the fold change (FC) in assay [4] worked out at 1.21. The IC50 entry in assay [7] is recorded as “Not Active”.

Regarding `COC(=O)C(Cc1cn(CC=C(C)C)c2ccccc12)N1C(=O)c2ccccc2C1=O` (stereo not given), the inhibition result in assay [1] is “inactive”. For the same molecule, the pIC50 in assay [2] is 4.46; in assay [5], 3.62; in assay [8], 2.54. Moreover, in assay [3], the outcome was inactive. The fold change (FC) in assay [4] was determined as 0.36. The IC50 entry in assay [6] and in assay [7] was “Not Active” each time.

For the molecule `N[C@@H](Cc1c[nH]c2ccccc12)C(=O)O` [TRYPTOPHAN], in assay [1], the inhibition result was “inactive”. Besides, the pIC50 is 5.46 in assay [2]; 4.72 in assay [5]; 4.50 in assay [6]; 2.94 in assay [7]; 3.00 in assay [8]. Further, the outcome in assay [3] was inactive. Further, the fold change (FC) in assay [4] was 2.74.

Take `COC(=O)[C@@H](N)Cc1c[nH]c2ccccc12` [TRYPTOPHAN METHYL ESTER]: the inhibition result in assay [1] is “inactive”. For the same molecule, the pIC50 is 5.02 in assay [2], 4.88 in assay [5], 4.32 in assay [6] and 2.98 in assay [8]. The result in assay [3] was inactive. In addition, the fold change (FC) in assay [4] was determined as 2.6. Further, the IC50 entry in assay [7] is given as “Not Active”.

Turning to `CC(C)=CCn1cc(CCN2C(=O)c3ccccc3C2=O)c2ccccc21`, in assay [1], the inhibition result is “inactive”. The pIC50 in assay [2] was 5.20; in assay [5], 3.72. For the same molecule, the outcome in assay [3] was inactive. The “fold change (FC)” value in assay [4] was “inactive”. Besides, the IC50 entry in assay [6], in assay [7] and in assay [8] was “Not Active” each time.

Regarding `COC(=O)[C@H](Cc1cn(C/C=C/c2ccccc2)c2ccccc12)NC(C)=O`, in assay [1], the inhibition entry was “inactive”. For the same molecule, the negative-log IC50 (pIC50) is 4.17 in assay [2], 4.44 in assay [5], 3.66 in assay [6] and 3.01 in assay [8]. In assay [3], the result was inactive. The fold change (FC) in assay [4] was 0.44. Further, the IC50 result in assay [7] is “Not Active”.

With `CC(C)=CCc1[nH]c2ccccc2c1CC(N)C(=O)O` (stereo not given), the inhibition entry in assay [1] was “inactive”. Further, in assay [2], the negative logarithm of the IC50 (pIC50) was 5.34. Also, the result in assay [3] was inactive. In addition, the fold change (FC) in assay [4] is 0.48.

In the case of `COC(=O)C(Cc1c(CCC(C)C)[nH]c2ccccc12)N1C(=O)c2ccccc2C1=O` (stereo not given), in assay [1], the inhibition entry is “inactive”. The pIC50 is 5.43 in assay [2], 4.85 in assay [5] and 3.12 in assay [8]. Besides, in assay [3], the result was inactive. For the same molecule, in assay [4], the fold change (FC) amounted to 0.97. The IC50 entry in assay [6] and in assay [7] was “Not Active” each time.
